Read-outs that look alike come from different tables or passages of the source. Ends that are not written are not given here. Peptide text beside a SMILES is read from it.
Key:
[1] = Cytotoxicity screening of the peptide library; format: cell-based, human; settings: human; both repeats; read-out: IC50 cell toxicity MRC5-SV2
Protocol: (§1) To determine early signs of peptide toxicity, the library was tested against the MRC5-SV2 cell line of human, embryonic lung fibroblasts (Sigma-Aldrich). Peptides were serially diluted in 96-well plates as described earlier at concentrations ranging from 64 μM to 0.25 μM for the first screening, and from 32 μM to 0.016 μM for the independent repeat. Tamoxifen (Sigma-Aldrich) was included as a reference compound. After preparation of the test plates, cell suspension (190 μL) of 1.5 × 10^5 cells/mL in complete minimum essential medium (Gibco) was added to the peptides. Plates were incubated for 72 h at 37°C in a 5% CO2 incubator (Binder). Afterwards, 50 μL of a 0.01% (wt/vol) resazurin (Sigma-Aldrich) solution was added to the wells to detect cell viability.

S. aureus ATCC 6538 = format: cell-based, Staphylococcus aureus; settings: 16 h; for MIC S. aureus ATCC 6538: determined visually; for IC50: MHB, 37°C, resazurin, 50% growth inhibition
Protocol: (§2) To detect antimicrobial activity of the BSF AMPs, the peptide library underwent screening against a panel of microorganisms, consisting of S. aureus ATCC 6538, E. coli ATCC 8739, P. aeruginosa ATCC 9027, C. albicans B59630, and A. fumigatus B42928. Serial dilutions of the peptides were prepared from the DMSO stock solutions in sterile demineralized water in 96-well plates using an automated liquid-handling workstation (Beckman Coulter Biomek 3000) in end volumes of 10 μL. The final in-plate concentration of DMSO was <1%. Peptide concentrations ranged from 64 μM to 0.25 μM for the first evaluation, and from 32 μM to 0.016 μM for the independent repeat. As references, doxycycline (Sigma-Aldrich; S. aureus, E. coli, P. aeruginosa), flucytosine (Sigma-Aldrich; C. albicans), and econazole (Sigma-Aldrich; A. fumigatus) were used. Suspensions of a starting inoculum of 5 × 10^3 CFU/mL (E. coli, S. aureus, C. albicans, A. fumigatus) and 5 × 10^4 CFU/mL (P. aeruginosa) were prepared in MHB (bacterial species) or RPMI medium (fungal species) and 190 μL was added to the 96-well plates. Plates were incubated for 16 h (E. coli, S. aureus, P. aeruginosa), 24 h (C. albicans), or 48 h (A. fumigatus) at 37°C. After incubation, read-out of the antimicrobial activity was performed using a resazurin assay. Then, 20 μL of a 0.01% (wt/vol) resazurin (Sigma-Aldrich) solution was added to each well and plates were incubated for 15 min (S. aureus), 30 min (E. coli), 45 min (P. aeruginosa), 4 h (C. albicans), or 17 h (A. fumigatus) to allow resazurin reduction to take place. Fluorescence was read using a microplate reader (Telix) at λexcitation = 550 nm and λemission = 590. […] MIC values were determined visually. Medium in the wells with no visual growth was plated on MHA to detect the MBC, defined as ≥3 log reduction compared with the growth control.

E. coli ATCC 8739 [2] = format: cell-based, Escherichia coli; settings: for IC50: MHB, 37°C, resazurin
Protocol: as §2

P. aeruginosa ATCC 9027 = format: cell-based, Pseudomonas aeruginosa; settings: 16 h; for MIC P. aeruginosa ATCC 9027: determined visually; for IC50: MHB, 37°C, resazurin
Protocol: as §2

E. coli ATCC 8739 [3] = settings: ATCC 8739, 16 h
[4] = system: M. tuberculosis ATCC 25177 (H37Ra); settings: for IC50: read-out: IC50 M. tuberculosis ATCC 25177 (H37Ra), starting at 32 μM, 5×10^5 CFU/mL, 7 days, 37°C, resazurin; for MIC M. tuberculosis ATCC 25177 (H37Ra): visual
K. pneumoniae ATCC 13883 = settings: ATCC 13883, 16 h
B. cenocepacia LMG 16656 = settings: for IC50: read-out: IC50 B. cenocepacia LMG 16656, starting at 32 μM, 10^5 CFU/mL, 48 h, 37°C, resazurin; for MIC B. cenocepacia LMG 16656: visual
P. aeruginosa ATCC 15442 = settings: ATCC 15442, 16 h
[5] = system: MRC5-SV2 cell line of human, embryonic lung fibroblasts; assay: Cytotoxicity screening of the peptide library; format: cell-based; settings: 72 h, 37°C, resazurin fluorescence
Protocol: as §1

A. fumigatus B42928 = format: cell-based, Aspergillus fumigatus; settings: RPMI, 48 h, 37°C, resazurin
Protocol: as §2

C. albicans B59630 = format: cell-based, Candida albicans; settings: RPMI, 24 h, 37°C, resazurin
Protocol: as §2

[6] = system: preformed P. aeruginosa ATCC 15442 biofilm; assay: Biofilm eradication (postexposure); format: cell-based, Pseudomonas aeruginosa; settings: at 64 μM and 128 μM; resazurin
Protocol: After 16 h of incubation at 37°C and shaking at 110 rpm (New Brunswick Innova 4300), a resazurin assay was used as described by Gilbert-Girard et al. to determine the viability of the bacterial cells in the biofilm ([79]). After incubation, the growth medium was removed from the well plates and the bacterial biofilms were washed once with PBS to remove remaining planktonic cells. […] The fluorescence of the wells was measured at λexcitation = 550 nm and λemission = 590 using a microplate reader (Promega). Afterwards, a crystal violet staining was applied to determine the biomass of the biofilms ([79]). The resazurin solution was removed from the well plates and 200 μL of 100% ethanol (VWR Chemicals) was added to fix the biofilms. After 15 min of incubation, the ethanol was discarded from the wells and the plates were left to air dry for 30 min. […] The staining solution was removed after 5 min and the biofilms were washed with PBS. After air-drying for 10 min, the crystal violet stain was solubilized in 200 μL of 100% ethanol. […] The experiment was carried out three times. Polymyxin B sulfate (Sigma-Aldrich) was included as a reference. […] The next day, bacterial viability and biomass were determined with a resazurin assay and crystal violet assay as described earlier. […]

[7] = repeat 1, 64-0.25 μM, determined visually, 16 h
[8] = repeat 2, 32-0.016 μM, determined visually, 16 h
[9] = repeat 1, first screening 64-0.25 μM
[10] = repeat 2, independent repeat 32-0.016 μM

In the case of `CC[C@H](C)[C@H](N)C(=O)N[C@@H](CCCCN)C(=O)N[C@@H](CS)C(=O)N[C@H](C(=O)N1CCC[C@H]1C(=O)N[C@@H](CO)C(=O)N[C@@H](CCC(N)=O)C(=O)N[C@@H](CS)C(=O)N[C@@H](CC(N)=O)C(=O)N[C@@H](CCC(N)=O)C(=O)N[C@H](C(=O)N[C@@H](CS)C(=O)N[C@@H](CCCNC(=N)N)C(=O)N[C@H](C(=O)N[C@@H](CC(C)C)C(=O)NCC(=O)N[C@@H](CCCCN)C(=O)N[C@@H](CCCCN)C(=O)N[C@@H](CS)C(=O)NCC(=O)N[C@@H](Cc1ccc(O)cc1)C(=O)N[C@@H](CS)C(=O)N[C@@H](CCCCN)C(=O)N[C@@H](CC(N)=O)C(=O)N[C@@H](C)C(=O)N[C@@H](CO)C(=O)N[C@H](C(=O)N[C@@H](CS)C(=O)N[C@H](C(=O)N[C@@H](CS)C(=O)N[C@@H](CC(C)C)C(N)=O)C(C)C)[C@@H](C)O)C(C)C)[C@@H](C)CC)C(C)C` [Hill-Knot2] (H-IKCVPSQCNQICRVLGKKCGYCKNASTCVCL-NH2; N-terminus assumed), the IC50 [1] is reported as < 32 µM.

With “FNNLPICVEGLAGDIGSILLGVESDIGALAGAIANLALIAGECAAQGEAGAAICA-NH2 (cysteines drawn unpaired) [Hill-Stom1]” the IC50 [1] was < 32 µM, the “MIC S. aureus ATCC 6538” value (S. aureus ATCC 6538; repeat 1, 64-0.25 μM) was > 64.00 µM and the “MIC S. aureus ATCC 6538” value (S. aureus ATCC 6538; repeat 2, 32-0.016 μM) was > 32.00 µM. For the same compound, the “MIC E. coli ATCC 8739” value (E. coli ATCC 8739 [2]; [7]) was > 32.00 µM, the “MIC E. coli ATCC 8739” value (E. coli ATCC 8739 [2]; [8]) was > 64.00 µM and the “MIC P. aeruginosa ATCC 9027” value (P. aeruginosa ATCC 9027; repeat 1, 64-0.25 μM) was > 32.00 µM. For the same compound, the “MIC P. aeruginosa ATCC 9027” value (P. aeruginosa ATCC 9027; repeat 2, 32-0.016 μM) was > 64.00 µM.

In the case of “SWWKKVFKPVEKLGQRVRDATIQGIGIAQQGANVLATVRGGPPQ-NH2 [Hill-Cec1]”, the IC50 (E. coli ATCC 8739 [3]) is reported as 0.15 µM, the “MIC E. coli ATCC 8739” value (E. coli ATCC 8739 [2]; ATCC 8739, 16 h) is reported as 0.25 µM and the IC50 ([4]; repeat 1) is reported as > 32 µM. For the same compound, the IC50 ([4]; repeat 2) was > 32 µM, the “MIC M. tuberculosis ATCC 25177 (H37Ra)” value ([4]; repeat 1) was >32 µM and the “MIC M. tuberculosis ATCC 25177 (H37Ra)” value ([4]; repeat 2) was >32 µM. The “MIC K. pneumoniae” value (K. pneumoniae ATCC 13883) was 0.25 to 0.5 µM, the IC50 (B. cenocepacia LMG 16656; repeat 1) was > 32 µM and the IC50 (B. cenocepacia LMG 16656; repeat 2) was > 32 µM. For the same compound, the “MIC B. cenocepacia LMG 16656” value (B. cenocepacia LMG 16656; repeat 1) was >32 µM, the “MIC B. cenocepacia LMG 16656” value (B. cenocepacia LMG 16656; repeat 2) was >32 µM and the “MIC P. aeruginosa ATCC 15442” value (P. aeruginosa ATCC 15442) was 1 µM.

For “TTCDLISGTKIENIACAAHCIAMGHKGGYCNSNLICICR [Hill-Def7, Defensin without disulfide bridges]”, the IC50 [5, 9] was > 64 µM, the IC50 [5, 10] was > 32 µM and the IC50 (S. aureus ATCC 6538; repeat 1, 64-0.25 μM) was > 64 µM. For the same compound, the “MIC S. aureus ATCC 6538” value (S. aureus ATCC 6538; repeat 1, 64-0.25 μM) was > 64.00 µM, the IC50 (S. aureus ATCC 6538; repeat 2, 32-0.016 μM) was > 32 µM and the “MIC S. aureus ATCC 6538” value (S. aureus ATCC 6538; repeat 2, 32-0.016 μM) was > 32.00 µM. For the same compound, the IC50 (E. coli ATCC 8739 [2]; repeat 1, 64-0.25 μM, 16 h) was > 64 µM, the “MIC E. coli ATCC 8739” value (E. coli ATCC 8739 [2]; [7]) was > 64.00 µM and the IC50 (E. coli ATCC 8739 [2]; repeat 2, 32-0.016 μM, 16 h) was > 32 µM. The “MIC E. coli ATCC 8739” value (E. coli ATCC 8739 [2]; [8]) was > 32.00 µM, the IC50 (A. fumigatus B42928; repeat 1, 64-0.25 μM) was > 64 µM and the IC50 (A. fumigatus B42928; repeat 2, 32-0.016 μM) was > 32 µM. The IC50 (P. aeruginosa ATCC 9027; repeat 1, 64-0.25 μM) was > 64 µM, the “MIC P. aeruginosa ATCC 9027” value (P. aeruginosa ATCC 9027; repeat 1, 64-0.25 μM) was > 64.00 µM and the IC50 (P. aeruginosa ATCC 9027; repeat 2, 32-0.016 μM) was > 32 µM. The “MIC P. aeruginosa ATCC 9027” value (P. aeruginosa ATCC 9027; repeat 2, 32-0.016 μM) was > 32.00 µM, the IC50 (C. albicans B59630; repeat 1, 64-0.25 μM) was > 64 µM and the IC50 (C. albicans B59630; repeat 2, 32-0.016 μM) was > 32 µM.

For “VTCDLLEPFLGPAPCMIHCIVRFRKRTGYCNSQNVCVCR [Hill-Def1, Defensin without disulfide bridges, C-terminal amidation]”, the IC50 [5, 9] was > 64 µM, the IC50 [5, 10] was > 32 µM and the IC50 (S. aureus ATCC 6538; repeat 1, 64-0.25 μM) was > 64 µM. For the same compound, the “MIC S. aureus ATCC 6538” value (S. aureus ATCC 6538; repeat 1, 64-0.25 μM) was > 64.00 µM, the IC50 (S. aureus ATCC 6538; repeat 2, 32-0.016 μM) was > 32 µM and the “MIC S. aureus ATCC 6538” value (S. aureus ATCC 6538; repeat 2, 32-0.016 μM) was > 32.00 µM. The IC50 (E. coli ATCC 8739 [2]; repeat 1, 64-0.25 μM, 16 h) was > 64 µM, the “MIC E. coli ATCC 8739” value (E. coli ATCC 8739 [2]; [7]) was > 64.00 µM and the IC50 (E. coli ATCC 8739 [2]; repeat 2, 32-0.016 μM, 16 h) was > 32 µM. For the same compound, the “MIC E. coli ATCC 8739” value (E. coli ATCC 8739 [2]; [8]) was > 32.00 µM, the IC50 (A. fumigatus B42928; repeat 1, 64-0.25 μM) was > 64 µM and the IC50 (A. fumigatus B42928; repeat 2, 32-0.016 μM) was > 32 µM. The IC50 (P. aeruginosa ATCC 9027; repeat 1, 64-0.25 μM) was > 64 µM, the “MIC P. aeruginosa ATCC 9027” value (P. aeruginosa ATCC 9027; repeat 1, 64-0.25 μM) was > 64.00 µM and the IC50 (P. aeruginosa ATCC 9027; repeat 2, 32-0.016 μM) was > 32 µM. The “MIC P. aeruginosa ATCC 9027” value (P. aeruginosa ATCC 9027; repeat 2, 32-0.016 μM) was > 32.00 µM, the IC50 (C. albicans B59630; repeat 1, 64-0.25 μM) was > 64 µM and the IC50 (C. albicans B59630; repeat 2, 32-0.016 μM) was > 32 µM.

For polymyxin B [reference compound], the “reduction in viability of preformed biofilm” value [6] was “over 70%”.
